For assay [1], the target named is Histone deacetylase 2 (Homo sapiens, UniProt Q92769). In words: Inhibition of HDAC2 (unknown origin) assessed as residual activity at 1.23 x 10^-7M (reference value: 99.81%). To be noted: dose 1.23 10^-7M.
The target in assay [2] is T1, Protein deacetylase HDAC6 (Homo sapiens) (UniProt Q9UBN7).
T1 sequence (whole entry): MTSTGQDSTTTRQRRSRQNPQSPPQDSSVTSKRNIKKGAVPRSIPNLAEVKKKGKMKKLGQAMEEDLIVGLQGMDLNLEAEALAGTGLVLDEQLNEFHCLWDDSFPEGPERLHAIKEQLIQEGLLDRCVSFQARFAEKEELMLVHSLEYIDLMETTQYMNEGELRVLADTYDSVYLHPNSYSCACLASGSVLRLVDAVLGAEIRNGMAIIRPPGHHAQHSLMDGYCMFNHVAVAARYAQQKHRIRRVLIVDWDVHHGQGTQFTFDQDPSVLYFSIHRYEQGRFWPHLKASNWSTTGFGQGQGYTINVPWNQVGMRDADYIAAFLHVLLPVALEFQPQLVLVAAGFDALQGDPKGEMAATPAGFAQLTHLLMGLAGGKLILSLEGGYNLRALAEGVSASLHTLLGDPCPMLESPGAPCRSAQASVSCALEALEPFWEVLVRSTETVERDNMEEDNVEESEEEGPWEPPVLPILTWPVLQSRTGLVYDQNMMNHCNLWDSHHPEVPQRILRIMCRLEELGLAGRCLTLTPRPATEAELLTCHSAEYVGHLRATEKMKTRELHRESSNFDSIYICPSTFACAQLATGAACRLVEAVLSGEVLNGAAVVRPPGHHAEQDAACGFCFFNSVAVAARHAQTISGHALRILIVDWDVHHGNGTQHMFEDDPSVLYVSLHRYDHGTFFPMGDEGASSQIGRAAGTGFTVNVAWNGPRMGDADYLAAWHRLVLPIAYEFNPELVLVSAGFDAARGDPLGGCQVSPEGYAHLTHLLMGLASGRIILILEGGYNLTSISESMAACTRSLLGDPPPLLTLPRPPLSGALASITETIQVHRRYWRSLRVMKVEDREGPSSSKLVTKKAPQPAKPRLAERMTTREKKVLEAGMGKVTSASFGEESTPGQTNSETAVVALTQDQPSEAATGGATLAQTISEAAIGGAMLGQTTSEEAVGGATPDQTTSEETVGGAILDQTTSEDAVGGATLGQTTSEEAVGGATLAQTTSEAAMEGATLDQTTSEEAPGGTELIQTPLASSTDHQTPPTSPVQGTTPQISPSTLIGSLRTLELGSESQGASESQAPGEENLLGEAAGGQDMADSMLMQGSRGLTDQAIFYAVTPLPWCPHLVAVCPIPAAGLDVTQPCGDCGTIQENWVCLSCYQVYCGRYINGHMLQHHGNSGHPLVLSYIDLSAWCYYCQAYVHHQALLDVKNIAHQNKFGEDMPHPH
In words: Inhibition of HDAC6 (unknown origin) using p53 residues 379 to 382 [RHKK(Ac)] as fluorogenic substrate assessed as residual activity at 3.33 x 10^-6M (reference value: 101.06%). To be noted: dose 3.33 10^-6M.

Assay [3] has as its target T2, Histone deacetylase 7 (Homo sapiens) (UniProt Q8WUI4).
T2 sequence (whole entry): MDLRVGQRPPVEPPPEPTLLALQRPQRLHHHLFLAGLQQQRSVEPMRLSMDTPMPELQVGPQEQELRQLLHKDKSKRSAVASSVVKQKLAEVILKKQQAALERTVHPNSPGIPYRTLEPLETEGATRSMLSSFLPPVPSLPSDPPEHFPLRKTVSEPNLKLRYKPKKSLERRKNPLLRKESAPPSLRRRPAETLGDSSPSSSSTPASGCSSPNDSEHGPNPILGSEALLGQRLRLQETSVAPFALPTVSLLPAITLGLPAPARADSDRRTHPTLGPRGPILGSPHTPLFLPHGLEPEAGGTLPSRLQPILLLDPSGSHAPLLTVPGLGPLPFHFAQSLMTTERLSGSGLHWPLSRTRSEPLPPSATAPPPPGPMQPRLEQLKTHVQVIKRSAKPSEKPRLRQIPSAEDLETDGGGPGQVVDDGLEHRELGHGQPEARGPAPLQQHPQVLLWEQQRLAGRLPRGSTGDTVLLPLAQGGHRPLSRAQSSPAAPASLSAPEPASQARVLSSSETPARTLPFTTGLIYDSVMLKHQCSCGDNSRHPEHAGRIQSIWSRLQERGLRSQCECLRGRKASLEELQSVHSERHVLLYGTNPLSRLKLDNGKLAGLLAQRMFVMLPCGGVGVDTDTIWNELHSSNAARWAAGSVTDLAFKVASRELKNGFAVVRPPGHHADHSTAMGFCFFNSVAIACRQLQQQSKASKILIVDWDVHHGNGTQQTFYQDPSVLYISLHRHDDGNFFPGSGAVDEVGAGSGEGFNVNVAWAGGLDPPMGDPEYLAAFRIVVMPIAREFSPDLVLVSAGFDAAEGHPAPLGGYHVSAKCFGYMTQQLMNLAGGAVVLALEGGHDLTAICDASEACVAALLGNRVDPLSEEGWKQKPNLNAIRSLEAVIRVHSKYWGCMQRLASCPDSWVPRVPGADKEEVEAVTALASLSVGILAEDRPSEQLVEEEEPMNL
In words: Inhibition of HDAC7 (unknown origin) assessed as residual activity at 1.37 x 10^-8M (reference value: 102.66%). To be noted: dose 1.37 10^-8M.

In assay [4] the target is T2, Histone deacetylase 7 (Homo sapiens). In words: Inhibition of HDAC7 (unknown origin) assessed as residual activity at 1.52 x 10^-9M (reference value: 102.66%). To be noted: dose 1.52 10^-9M.
Assay [5] deals with T3, Histone deacetylase 8 (Homo sapiens) (UniProt Q9BY41).
T3 sequence (whole entry): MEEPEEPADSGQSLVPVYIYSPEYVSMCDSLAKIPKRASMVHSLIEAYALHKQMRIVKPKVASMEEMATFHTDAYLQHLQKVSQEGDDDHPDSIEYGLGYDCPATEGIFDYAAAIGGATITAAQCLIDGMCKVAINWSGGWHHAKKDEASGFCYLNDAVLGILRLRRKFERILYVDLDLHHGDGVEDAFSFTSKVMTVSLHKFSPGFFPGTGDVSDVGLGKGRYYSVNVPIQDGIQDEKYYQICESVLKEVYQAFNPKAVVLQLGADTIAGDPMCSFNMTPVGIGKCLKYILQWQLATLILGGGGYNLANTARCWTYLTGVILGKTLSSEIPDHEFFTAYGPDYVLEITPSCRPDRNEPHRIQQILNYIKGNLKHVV
Kind of assay: Inhibition of HDAC8 (unknown origin) assessed as residual activity at 1.1 x 10^-6M (reference value: 100%). To be noted: dose 1.1 10^-6M.

The target of assay [6] is T3, Histone deacetylase 8 (Homo sapiens). In words: Inhibition of HDAC8 (unknown origin) assessed as residual activity at 4.12 x 10^-8M (reference value: 100%). To be noted: dose 4.12 10^-8M.
The target in assay [7] is Histone deacetylase 9 (Homo sapiens) (UniProt Q9UKV0). Kind of assay: Inhibition of HDAC9 (unknown origin) assessed as residual activity at 4.57 x 10^-9M (reference value: 97.55%). To be noted: dose 4.57 10^-9M.
Histone deacetylase 9 (Homo sapiens), sequence (Q9UKV0 whole entry): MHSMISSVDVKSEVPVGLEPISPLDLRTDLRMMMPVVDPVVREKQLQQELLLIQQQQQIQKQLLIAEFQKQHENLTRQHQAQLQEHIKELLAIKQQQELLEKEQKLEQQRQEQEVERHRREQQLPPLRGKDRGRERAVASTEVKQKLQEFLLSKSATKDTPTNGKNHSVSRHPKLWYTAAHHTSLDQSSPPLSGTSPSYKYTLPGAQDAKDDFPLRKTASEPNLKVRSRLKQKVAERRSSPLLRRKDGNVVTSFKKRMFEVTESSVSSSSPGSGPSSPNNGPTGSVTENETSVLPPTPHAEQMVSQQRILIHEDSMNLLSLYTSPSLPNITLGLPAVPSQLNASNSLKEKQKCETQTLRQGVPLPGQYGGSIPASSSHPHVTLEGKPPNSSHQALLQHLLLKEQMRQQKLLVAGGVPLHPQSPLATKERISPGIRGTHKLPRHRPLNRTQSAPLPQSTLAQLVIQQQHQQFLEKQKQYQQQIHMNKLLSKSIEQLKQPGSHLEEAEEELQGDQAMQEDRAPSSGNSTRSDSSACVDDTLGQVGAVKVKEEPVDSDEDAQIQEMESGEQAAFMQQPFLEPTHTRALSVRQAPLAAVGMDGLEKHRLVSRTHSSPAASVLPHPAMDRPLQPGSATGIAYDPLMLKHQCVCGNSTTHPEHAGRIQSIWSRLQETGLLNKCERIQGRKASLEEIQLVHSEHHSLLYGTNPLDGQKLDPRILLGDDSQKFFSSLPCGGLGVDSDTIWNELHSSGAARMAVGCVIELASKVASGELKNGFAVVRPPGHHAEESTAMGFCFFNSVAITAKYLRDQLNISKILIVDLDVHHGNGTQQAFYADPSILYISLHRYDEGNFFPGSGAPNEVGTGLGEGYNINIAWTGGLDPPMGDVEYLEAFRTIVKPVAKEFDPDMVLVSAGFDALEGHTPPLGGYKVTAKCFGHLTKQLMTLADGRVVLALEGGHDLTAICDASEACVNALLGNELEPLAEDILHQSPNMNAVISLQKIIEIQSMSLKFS

Histone deacetylase 2, sequence (Q92769 whole entry): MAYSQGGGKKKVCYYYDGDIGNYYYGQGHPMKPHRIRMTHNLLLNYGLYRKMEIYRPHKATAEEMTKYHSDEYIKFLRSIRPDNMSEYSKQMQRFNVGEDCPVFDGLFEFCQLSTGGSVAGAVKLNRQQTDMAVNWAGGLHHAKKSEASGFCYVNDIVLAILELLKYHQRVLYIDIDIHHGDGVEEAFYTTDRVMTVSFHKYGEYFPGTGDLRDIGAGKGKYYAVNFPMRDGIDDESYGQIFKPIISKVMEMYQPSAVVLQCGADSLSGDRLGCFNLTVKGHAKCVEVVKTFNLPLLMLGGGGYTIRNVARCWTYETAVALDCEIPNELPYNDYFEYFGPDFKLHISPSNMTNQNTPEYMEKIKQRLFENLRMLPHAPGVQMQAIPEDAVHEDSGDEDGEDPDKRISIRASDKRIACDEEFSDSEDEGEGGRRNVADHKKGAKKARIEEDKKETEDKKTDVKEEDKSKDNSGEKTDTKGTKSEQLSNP

For the compound `NC(=O)c1cccc2[nH]c(-c3ccc(NCc4ccc(C(=O)Nc5ccccc5N)cc4)cc3)nc12`, the Activity in assay [1] was determined as 56.5%; in assay [2], 105%; in assay [3] it was 103%; in assay [4], 103%; in assay [5] it was 104%; in assay [6], 107%. Moreover, the Activity in assay [7] was 82.9%.
